One series concerns Osborne-Mendel rats. As to the kind of experiment: Rat caries study. In kind it is in vivo.
A further series relates to S.salivarius H-257. As to the kind of experiment: Inhibition of bacterial growth (24 h, optical density). In kind it is cell-based, Streptococcus salivarius. Conditions: for IC50: 50% inhibition in growth, 24 hours, means of triplicate experiments, read-out: ID/50 (the source's name); for ID/50: recalculated as ppm F, 1440 min.
The next series concerns S.mutans OMZ-176. Described as above. In kind it is cell-based, Streptococcus mutans. Conditions: for IC50: 50% inhibition in growth, 24 hours, means of triplicate experiments, read-out: ID/50 (the source's name); for ID/50: recalculated as ppm F, 1440 min.
In a further series the test system is S.salivarius SS4. Described as above. In kind it is cell-based, Streptococcus salivarius. Conditions: for IC50: 50% inhibition in growth, 24 hours, means of triplicate experiments, read-out: ID/50 (the source's name); for ID/50: recalculated as ppm F, 1440 min.
In the next series the test system is S.sanguis 10557. The description is as above. In kind it is cell-based, Streptococcus sanguis. Particulars: for IC50: 50% inhibition in growth, 24 hours, means of triplicate experiments, read-out: ID/50 (the source's name); for ID/50: recalculated as ppm F, 1440 min.
In a further series the test system is S.sanguis 10556. Described as above. In kind it is cell-based, Streptococcus sanguis. Particulars: for IC50: 50% inhibition in growth, 24 hours, means of triplicate experiments, read-out: ID/50 (the source's name); for ID/50: recalculated as ppm F, 1440 min.
The next series relates to L.casei. The description is as above. In kind it is cell-based, Lactobacillus casei. Conditions: for IC50: 50% inhibition in growth, 24 hours, means of triplicate experiments, read-out: ID/50 (the source's name); for ID/50: recalculated as ppm F, 1440 min.
The nature of series [1]: Dissolution of hydroxyapatite discs following fluoride treatment (phosphate release).
A further series has as its system S.mutans 6715. Kind of series: Inhibition of bacterial growth (24 h, optical density). In kind it is cell-based, Streptococcus mutans. Particulars: recalculated as ppm F, 1440 min.
The nature of series [2]: Stability of solution on standing (haze / turbidity).
For series [3] the following is noted: normal temperature and pressure.
The subject of a further series is Artificial Plaque. As to the kind of experiment: In vitro antiplaque study on saliva-coated aluminium plummets. Particulars: means ± 95% confidence limits, five replicas. In kind it is cell-based.
The conditions of series [4]: complexing between the Zn and NH4; cited from earlier work.
Another series can be described thus: pH of aqueous solution. In kind it is physicochemical. An excerpt:
An aqueous solution of ZnNH4F3 has a pH of 5.8. The preferred pH of oral compositions containing ZnNH4F3 is from 4.5 to 8.0. A 1000 ppm F^- solution was stable.

Series [5] can be described thus: Availability of F ion by fluoride-selective electrode. In kind it is physicochemical. Particulars: Orion fluoride electrode.
Where [6] appears, read: 1000 ppm F- solution, pH 4.0, vs disc treated with buffer alone, means of triplicate, 30 min.
[7] abbreviates: 1000 ppm F- solution, pH 5.0, vs disc treated with buffer alone, means of triplicate, 30 min.
The mark [8] stands for this setting: 1000 ppm F- solution, pH 6.0, vs disc treated with buffer alone, means of triplicate, 30 min.
[9] abbreviates: 1000 ppm F- solution, pH 7.0, vs disc treated with buffer alone, means of triplicate, 30 min.

Turning to `[F-].[Na+]` [NaF], in the series on Osborne-Mendel rats (1000 ppm F-, topical to molar teeth, 21 days, cariogenic diet, only severe lesions (B & C) scored, water control 5.25), the “Caries/ Rat” value is recorded as 3.69. The “% Reduction” value in the series with Osborne-Mendel rats (reduction in caries based on the water control, 1000 ppm F-, topical, 21 days) came out at 29.7%. Also, the IC50 in the series on S.salivarius H-257 is 3770 µM; in the series with S.mutans OMZ-176, 16.3 mM; in the series with S.salivarius SS4, 13.4 mM; in the series with S.sanguis 10557, 1820 µM; with S.sanguis 10556, 1180 µM; in the series with L.casei, more than 12 mM. Further, the ID/50 with S.salivarius H-257 was 72 ppm F; in the series with S.mutans OMZ-176 it was 309 ppm F; in the series on S.salivarius SS4, 255 ppm F; in the series on S.sanguis 10557, 35 ppm F; with S.sanguis 10556 it was 22 ppm F; in the series on L.casei, 352 ppm F. Besides, in the series on S.mutans 6715, the ID/50 was 138 ppm F. For the same molecule, the “% Reduction in Dissolution” value in series [1] (setting [6]) was found to be 44%; in [1] (setting [7]) it was 36%; in [1] (setting [8]), 31%; in [1] (setting [9]), 31%.
With `[F][Sn][F]` [SnF2], the stability of solution entry in series [2] (after 24 hours at room temperature) is on record as “developed turbidity”. Further, the “% Reduction in Dissolution” value in [1] (setting [6]) is on record as 57%; in series [1] (setting [7]), 54%; in series [1] (setting [8]), 45%; in series [1] (setting [9]) it was 43%.
Regarding `[F][Zn][F]` [ZnF2], the solubility in series [3] was found to be 1.5%.
For the molecule `Cl.N.[Cl-].[Cl-].[Zn+2]` [ZnNH4Cl3], the values for the IC50 with S.salivarius SS4, in the series on S.sanguis 10556 and in the series on L.casei were 6.5 mM, 460 µM and 10 mM, respectively.
As for `O=S(=O)([O-])[O-].[Zn+2]` [ZnSO4], the IC50 with S.salivarius H-257 worked out at 750 µM; in the series on S.mutans OMZ-176, 7.5 mM; in the series with S.salivarius SS4, 6 mM; in the series with S.sanguis 10557, 400 µM; with S.sanguis 10556 it was 360 µM; in the series on L.casei, 10.4 mM. Moreover, the figures for the “Percentage Inhibition of Growth of Artificial Plaque” value with Artificial Plaque (Zinc Conc. 6.0 mM/L), in the series with Artificial Plaque (Zinc Conc. 15.0 mM/L) and in the series with Artificial Plaque (Zinc Conc. 30.0 mM/L) were 47 ± 14, 51 ± 14 and 64 ± 14, respectively.
Consider zinc ammonium fluoride [ZnNH4F3], for which the “% Reduction” value with Osborne-Mendel rats (rat, in vivo) amounted to 30.9%. In the series on Osborne-Mendel rats (rat, in vivo), the “Caries/ Rat” value turned out to be 3.63. Further, the IC50 with S.salivarius H-257 stood at 340 µM; with S.mutans OMZ-176, 3.05 mM; with S.salivarius SS4 it was 1.88 mM; in the series on S.sanguis 10557, 250 µM; in the series on S.sanguis 10556 it was 210 µM; in the series with L.casei, 4.7 mM. Further, the ID/50 is given as 19 ppm F in the series on S.salivarius H-257; 174 ppm F with S.mutans OMZ-176; 104 ppm F with S.salivarius SS4; 14 ppm F in the series on S.sanguis 10557; 12 ppm F in the series on S.sanguis 10556; 268 ppm F in the series with L.casei. In the series with S.mutans 6715, the ID/50 is recorded as 92 ppm F. Moreover, the “log K” value in series [4] is recorded as 2.18-2.59. Besides, the “pH of aqueous solution” value in “pH of aqueous solution” was found to be 5.8. In addition, the stability of solution result in series [2] (1000 ppm F- solution, not hazy on standing after several weeks) was “stable”. Further, the “availability of F ion” value in series [5] (solution at 1000 ppm F level) and in series [5] (solution at 2500 ppm F level) was 100% each time. Further, the “% Reduction in Dissolution” value amounted to 52% in [1] (hydroxyapatite discs, pH 4, 30 min); 49% in [1] (hydroxyapatite discs, pH 5, 30 min); 43% in series [1] (hydroxyapatite discs, pH 6, 30 min); 40% in series [1] (hydroxyapatite discs, pH 7, 30 min). The “Percentage Inhibition of Growth of Artificial Plaque” value with Artificial Plaque (Zinc Conc. 6.0 mM/L) is 45 ± 14; with Artificial Plaque (Zinc Conc. 15.0 mM/L), 48 ± 14; in the series with Artificial Plaque (Zinc Conc. 30.0 mM/L), 60 ± 14.

The values are drawn from patent EP0121012A1, “Oral compositions” (UNILEVER PLC, priority 1983, dated 1984).
